Results published in USRE37556E1, “Superoxide radical inhibitor” (Otsuka Pharmaceutical Co., Ltd., priority 1990, dated 2002).

Test system: heart muscle
Experiment: Inhibition of heart muscle necrosis in rat caused by clogging of the coronary artery and subsequent blood reperfusion (tissue CPK)
Assay type: in vivo
Settings: male SD rats; 6 mg/kg intravenously 5 minutes before ligature; ischemic area 2 hours after reperfusion; p < 0.05 vs control
Description: 1 (4) Activity for inhibiting the heart muscle necrosis in rat caused by clogging of the coronary artery and subsequent blood reperfusion
Male rats of SD strain (7-10 week old, 250-350 g) were used in this test. The activity of creatine phosphokinase (CPK) in tissue was used as an indication of heart muscle necrosis.
A test compound was dissolved in a small amount of 1N aqueous NaOH solution, then diluted with a physiological saline solution, and administered at a dose of 1 ml/kg of body weight. Each rat was anesthetized with pentobarbital and thoracotomized under artifical respiration; the descending branch before left coronary artery was ligated with a piece of silk string for 12 minutes; then, the blood was reperfused. Thereafter, the thoracotomized chest was closed and the rat was waken from anesthesia. 2 hours after reperfusion, the heart was enucleated under anesthesia; only the ischemic area was homogenized; and the activity of CPK contained therein was measured. The test compound was intravenously administered at a dose of 6 mg/kg 5 mintues before ligature of the coronary artery.
The results on the NaOH/physiological saline solution-administered group as a control and the compound-administered group are shown in Table 19.

Compound | Activity of creatine phosphokinase in tissue, Mean ± S.E.
CCOc1ccc(-c2nc(-c3ccc(O)c(C(=O)O)c3)cs2)cc1OCC [compound 62, 4-(3-Carboxy-4-hydroxyphenyl)-2-(3,4-diethoxy-phenyl)thiazole] | 19.53 ± 1.56 U/mg of protein

Test system: not given
Experiment: not given
Settings: not given

Compound | melting point
O=c1[nH]cccc1-c1nc(-c2ccccc2)cs1 [Example 140, 2-(2-oxopyridin-3-yl)4-phenylthiazole] | 206 to 207 °C (dec.)
CCOc1ccc(-c2nc(-c3ccc(O)c(CC)c3)c(CN(C)C)s2)cc1OCC.Cl.Cl | 163 to 168 °C
COc1ccc(-c2nc(-c3ccc4c(c3)N(C)C(=O)CS4)cs2)cc1OC [Example 143, 2-(3,4-dimethoxyphenyl)-4-(4-methyl-2H-1,4-benzothiazin-3(4H)-one-6-yl)thiazole] | 143.5 to 144 °C
CCOc1ccc(-c2nc(-c3cccc(CO)n3)cs2)cc1OCC [Example 454, 2-(3,4-diethoxyphenyl)-4-(2-hydroxymethyl-6-pyridyl)thiazole] | 109 to 113 °C
CCOc1ccc(-c2nc(C3=CCN(C)CC3)cs2)cc1OCC | 81.2 to 83.6 °C
CCOc1ccc(-c2nc(-c3ccc(SC(=O)N(C)C)c(C(=O)OC)c3)cs2)cc1OCC [Example 354, 2-(3,4-diethoxyphenyl)-4-(4-dimethylaminocarbonylthio-3-methoxycarbonylphenyl)thiazole] | 108 to 109 °C
CCOc1ccc(-c2nc(-c3ccc(NCCN4CCCCC4)c(C(=O)OC)c3)cs2)cc1OCC.Cl.Cl | 93 to 94 °C
CCOc1ccc(-c2nc(-c3cc(CCO)c(O)c(C(=O)OC)c3)cs2)cc1OCC [Example 358, 2-(3,4-diethoxyphenyl)-4-[3-methoxycarbonyl-4-hydroxy-5-(2-hydroxyethyl)phenyl]-thiazole] | 113 to 114 °C
O=C1CCc2cc(-c3csc(-c4ccc(C(=O)O)cc4)n3)ccc2N1 [Example 147, 2-(4-carboxyphenyl)-4-(3,4-dihydrocarbostyril-6-yl)thiazole] | ≥ 300 °C
COc1ccc(-c2nc(-c3ccc4oc(=O)[nH]c4c3)cs2)cc1OC [Example 145, 2-(3,4-dimethoxyphenyl)-4-(benzoxazol-2-on-5-yl) thiazole] | 271 to 272 °C
COc1ccc(-c2nc(-c3ccc4c(c3)CCCN4)cs2)cc1OC.Cl | 156 to 158 °C
CCOc1ccc(-c2nc(-c3cc(C=CC(=O)O)c(O)c(C(=O)O)c3)cs2)cc1OCC [Example 514, 2-(3,4-diethoxyphenyl)-4-[3-carboxy-4-hydroxy-5-(2-carboxyvinyl)phenyl] thiazole] | 260 to 261 °C
CCOc1ccc(-c2nc(C=Cc3ccccc3)cs2)cc1OCC [Example 247, 2-(3,4-diethoxyphenyl)-4-styrylthiazole] | 94 to 95 °C
CCOc1ccc(-c2nc(-c3ccc(N)c(C(=O)O)c3)cs2)cc1OCC [Example 359, 2-(3,4-diethoxyphenyl)-4-(3-carboxy-4-aminophenyl)thiazole] | 228 to 229 °C
CCOc1ccc(-c2nc(-c3ccc(O[Si](C)(C)C(C)(C)C)c(CO)c3)cs2)cc1OCC | 101.3 to 103 °C
CCOc1ccc(-c2nc(Cn3cccc3C(C)=O)cs2)cc1OCC [Example 459, 2-(3,4-diethoxyphenyl)-4-(2-acetyl-1-pyrrolyl)methylthiazole] | 123 to 124 °C
CCOc1ccc(-c2nc(-c3cc4c(c(C(=O)O)c3)OC(C)(C)C4)cs2)cc1OCC [Example 465, 2-(3,4-diethoxyphenyl)-4-(2,2-dimethyl-7-carboxy-2,3-dihydrobenzofuran-5-yl)thiazole] | 106 to 107 °C
CCOc1ccc(-c2nc(-c3cc(C(=O)O)c(O)cc3O)cs2)cc1OCC [Example 360, 2-(3,4-diethoxyphenyl)-4-(3-carboxy-4,6-dihydroxyphenyl)thiazole] | 233 to 234 °C

Test system: human neutrophilic leukocytes
Experiment: Inhibition of superoxide radical (O2-) generation in FMLP-stimulated human neutrophilic leukocytes (ferricytochrome C method)
Assay type: cell-based
Settings: Homo sapiens, Leukocyte, Table 16; comparative test present compounds vs prior art compounds; NE = not effective
Method in brief: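 Neutrophils were isolated from healthy adult blood by dextran-hypotonic treatment and Ficoll-Paque gradient. Compounds in DMSO were pre-incubated with the cells at 37° C before FMLP stimulation. O2− generation was measured by ferricytochrome C reduction.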

Compound | IC50 [nM]
CCOc1ccc(-c2nc(-c3ccc(O)c(C(=O)O)c3)cs2)cc1OCC [compound 62, 4-(3-Carboxy-4-hydroxyphenyl)-2-(3,4-diethoxy-phenyl)thiazole] | 10

Same assay, conditions: Homo sapiens, Leukocyte, pH 7.4, Table 15; O2- generation, 3x10^-7 M FMLP, cytochalasin B, 37° C., pH 7.4

Compound | IC50 [nM]
CCOc1ccc(-c2nc(-c3ccc(O)c(C(=O)O)c3)cs2)cc1OCC [compound 62, 4-(3-Carboxy-4-hydroxyphenyl)-2-(3,4-diethoxy-phenyl)thiazole] | 10
